Experimental data: patent US8575391B2, “5-substituted-2-phenylamino benzamides as MEK inhibitors” (priority 2004, dated 2013)
Converted amounts (≈) assume the structure as drawn.

Assays:
[1] = test system: human non-small cell lung carcinoma cell line QG56; test: cells; settings: QG-56, 96 h, read-out: Growth inhibitory activity against cancer cells QG56 IC50
Procedure: (§1) The growth inhibitory activities against cancer cells were measured using Cell Counting Kit-8 (Dojindo Laboratories).

physchem = type: physicochemical; settings: aqueous buffer, thermodynamic from solid; 50 mM phosphate buffer (pH 6.5), room temperature (20° C.); read-out: Water solubility
[2] = test system: Human colon cancer cell line HT-29; test: cells; settings: HT-29, 96 h, read-out: Growth inhibitory activity against cancer cells HT29 IC50
Procedure: as §1

in vitro = in vitro ADME; settings: liver microsomes; mouse liver microsome 1 mg protein/mL, 2 mM NADPH, pH 7.4, 37° C.; read-out: Stability against mouse liver microsome T1/2

IC50 [1]: 21 nM
solubility at 2 h (physchem): 344 µM (≈ 159 µg/mL)
IC50 [2]: 5.7 nM
half-life (in vitro): > 6 h
Structure (SMILES): C#Cc1ccc(Nc2c(C(=O)NOCCO)cc(CN3OCCCC3=O)c(F)c2F)c(F)c1 [Compound G-4, 2-(4-Ethynyl-2-fluoro-phenylamino)-3,4-difluoro-N-(2-hydroxy-ethoxy)-5-(3-oxo-[1,2]oxadinan-2-ylmethyl)-benzamide]
